Laboratory results as given in patent US20150181873A1, “HERBICIDE-RESISTANT SUNFLOWER PLANTS, POLYNUCLEOTIDES ENCODING HERBICIDE=RESISTANT ACETO HYDROXY ACID SYNTHASE LARGE SUBUNIT PROTEINS, AND METHODS OF USE” (NIDERA S.A., priority 2013, published 2015).

Experiments:
Assay type in all cases: in vivo, Helianthus annuus
[1] = test system: Sunflower line S4897; experiment: Greenhouse spray injury rating, line S4897; conditions: imazapyr 360 gm ai/ha (column 360/240)
From the text: Sunflower lines S4897, Clearfield® sunflower varieties A, B, C and a conventional non-Clearfield variety were sprayed with three rates of imazamox (Raptor™), 100, 200 and 300 gm ai/ha plus 0.5% Sun It II and two rates of imazapyr (Arsenal™) 160 and 360 gm ai/ha plus 0.5% Sun It II when the plants were at the two to three leaf stage. Ratings were taken at 14 days after application (DAT) for injury. Injury was rated on a scale from 0 to 9 where 0=no injury to 9=dead plant. Twelve plants were sprayed per herbicide/rate treatment. Statistical analysis was conducted with STATGRAPHICS Plus 5.0 by using ANOVA and LSD procedures.
After plants were sprayed, it was realized that a height difference between S4897 and other sunflower varieties would have impacted the actual herbicide dose that was delivered. The spray boom height had been calibrated against S4897 and since the other varieties were taller and closer to the boom they would have received a greater dose of herbicide. Rates were recalibrated for the other varieties to determine the approximate dose they would have received. Assessments were made as presented in Table 2 since it was not possible to make a direct rate comparison due to the effect of the height. For example injury scores were compare for S4897 treated imazamox rate 100 gm ai/ha to the other varieties treated at 75 gm ai/ha. The treatment dose of 300 gm ai/ha for line S4897 was equivalent to the treatment of 200 gm ai/ha for the other varieties, which […].

[2] = test system: sunflower hybrid TH9 (A205V); experiment: Greenhouse imazapir dose response, TH9; conditions: 14 DAT
Description: (§1) A greenhouse study was conducted to quantify and contrast the imazapir sensivity of the mutants A122T and A205V in different genetic backgrounds at the whole plant level in sunflower. Seeds of the different sunflower lines that were used in this study were obtained under field conditions.
(§2) Seeds were sown in Petri dishes and, after germination, plantlets were transplanted to pots of 10 cm of diameter in a potting media consisting of equal parts of vermiculite, soil and sand. Plants were grown in a greenhouse under natural light conditions supplemented with 400 W sodium halide lamps to provide a 16 hrs daylength. Day/night temperatures were 25 and 20° C., respectively. At the V2 stage 10 plants of each genotype were randomly assigned to each treatment consisting of […] imazapir doses (0, 40, 80, 160, 240, 320, 400 and 480 g ai/ha), and a zero-time biomass determination. Experiment was arranged as a randomized block design with a full factorial (sunflower line×treatment) arrangement of treatments and 10 replications.
(§3) On the day of herbicide application ten plants of each genotype were cut at the cotyledonal node and dried at 60° C. for 48 hrs zero-time for dried weight determination. […] Height was determined as the distance between the cotyledonal node and the apex of each plant. For root biomass determination, each plant was taken from the pot and the potting media was washed out from the roots. Above ground biomass data from each line were converted to biomass accumulation after application by subtracting the appropriate average zero-time biomass from each sample. Dry biomass data were converted to percentages of the untreated control plants within each line to allow direct comparisons between groups.

[3] = test system: sunflower line IB920 (A205V); experiment: Greenhouse imazapir dose response, IB920; conditions: 14 DAT
Description: as §1, §2, §3

[4] = test system: sunflower restorer line GIM 5-6 (A122T); experiment: Greenhouse imazapir dose response, GIM 5-6; conditions: GIM5-6 (A122T), 14 DAT
Description: as §1, §2, §3

CC(C)C1(C)N=C(c2ncccc2C(=O)O)NC1=O (stereo not drawn) [Imazapyr, imazapyr]
Injury at 14 DAT ([1]; scale 0-9): 0.8 a
Injury at 14 DAT ([1]; scale 0-9, listed as imazapyr): very little injury
Phytotoxicity Index ([2]; 0.5x (40 g ai/ha)): 0
biomass accumulation, % of untreated ([2]; 0.5x (40 g ai/ha)): 91.7%
plant height, % of untreated ([2]; 0.5x (40 g ai/ha)): 100.0%
root dry weight, % of untreated ([2]; 0.5x (40 g ai/ha)): 81.5%
Phytotoxicity Index ([2]; 1x (80 g ai/ha)): 0
biomass accumulation, % of untreated ([2]; 1x (80 g ai/ha)): 81.7%
plant height, % of untreated ([2]; 1x (80 g ai/ha)): 100.0%
root dry weight, % of untreated ([2]; 1x (80 g ai/ha)): 84.9%
Phytotoxicity Index ([2]; 2x (160 g ai/ha)): 1.6
biomass accumulation, % of untreated ([2]; 2x (160 g ai/ha)): 54.7%
plant height, % of untreated ([2]; 2x (160 g ai/ha)): 78.9%
root dry weight, % of untreated ([2]; 2x (160 g ai/ha)): 58.8%
Phytotoxicity Index ([2]; 3x (240 g ai/ha)): 5.1
biomass accumulation, % of untreated ([2]; 3x (240 g ai/ha)): 35.7%
plant height, % of untreated ([2]; 3x (240 g ai/ha)): 50.0%
root dry weight, % of untreated ([2]; 3x (240 g ai/ha)): 34.1%
Phytotoxicity Index ([2]; 4x (320 g ai/ha)): 8.4
biomass accumulation, % of untreated ([2]; 4x (320 g ai/ha)): 25.3%
plant height, % of untreated ([2]; 4x (320 g ai/ha)): 38.1%
root dry weight, % of untreated ([2]; 4x (320 g ai/ha)): 27.3%
Phytotoxicity Index ([2]; 5x (400 g ai/ha)): 8.9
biomass accumulation, % of untreated ([2]; 5x (400 g ai/ha)): 19.8%
plant height, % of untreated ([2]; 5x (400 g ai/ha)): 31.8%
root dry weight, % of untreated ([2]; 5x (400 g ai/ha)): 29.9%
Phytotoxicity Index ([2]; 6x (480 g ai/ha)): 8.9
biomass accumulation, % of untreated ([2]; 6x (480 g ai/ha)): 19.5%
plant height, % of untreated ([2]; 6x (480 g ai/ha)): 34.7%
root dry weight, % of untreated ([2]; 6x (480 g ai/ha)): 22.1%
biomass accumulation, % of untreated ([3]; 0.5x (40 g ai/ha)): 93.9%
plant height, % of untreated ([3]; 0.5x (40 g ai/ha)): 96.2%
root dry weight, % of untreated ([3]; 0.5x (40 g ai/ha)): 94.0%
biomass accumulation, % of untreated ([3]; 1x (80 g ai/ha)): 87.9%
plant height, % of untreated ([3]; 1x (80 g ai/ha)): 80.0%
root dry weight, % of untreated ([3]; 1x (80 g ai/ha)): 89.6%
biomass accumulation, % of untreated ([3]; 2x (160 g ai/ha)): 58.8%
plant height, % of untreated ([3]; 2x (160 g ai/ha)): 61.5%
root dry weight, % of untreated ([3]; 2x (160 g ai/ha)): 50.7%
biomass accumulation, % of untreated ([3]; 3x (240 g ai/ha)): 46.4%
plant height, % of untreated ([3]; 3x (240 g ai/ha)): 40.9%
root dry weight, % of untreated ([3]; 3x (240 g ai/ha)): 37.3%
biomass accumulation, % of untreated ([3]; 4x (320 g ai/ha)): 35.5%
plant height, % of untreated ([3]; 4x (320 g ai/ha)): 27.9%
root dry weight, % of untreated ([3]; 4x (320 g ai/ha)): 32.8%
biomass accumulation, % of untreated ([3]; 5x (400 g ai/ha)): 33.9%
plant height, % of untreated ([3]; 5x (400 g ai/ha)): 30.0%
root dry weight, % of untreated ([3]; 5x (400 g ai/ha)): 25.4%
biomass accumulation, % of untreated ([3]; 6x (480 g ai/ha)): 29.4%
plant height, % of untreated ([3]; 6x (480 g ai/ha)): 27.1%
root dry weight, % of untreated ([3]; 6x (480 g ai/ha)): 19.4%
biomass accumulation, % of untreated ([4]; 0.5x (40 g ai/ha)): 100.0%
plant height, % of untreated ([4]; 0.5x (40 g ai/ha)): 100.0%
root dry weight, % of untreated ([4]; 0.5x (40 g ai/ha)): 100%
biomass accumulation, % of untreated ([4]; 1x (80 g ai/ha)): 96.4%
plant height, % of untreated ([4]; 1x (80 g ai/ha)): 100.0%
root dry weight, % of untreated ([4]; 1x (80 g ai/ha)): 88.0%
biomass accumulation, % of untreated ([4]; 2x (160 g ai/ha)): 97.7%
plant height, % of untreated ([4]; 2x (160 g ai/ha)): 99.1%
root dry weight, % of untreated ([4]; 2x (160 g ai/ha)): 90.0%
biomass accumulation, % of untreated ([4]; 3x (240 g ai/ha)): 95.8%
plant height, % of untreated ([4]; 3x (240 g ai/ha)): 98.1%
root dry weight, % of untreated ([4]; 3x (240 g ai/ha)): 98.0%
biomass accumulation, % of untreated ([4]; 4x (320 g ai/ha)): 90.8%
plant height, % of untreated ([4]; 4x (320 g ai/ha)): 91.0%
root dry weight, % of untreated ([4]; 4x (320 g ai/ha)): 80.0%
biomass accumulation, % of untreated ([4]; 5x (400 g ai/ha)): 81.9%
plant height, % of untreated ([4]; 5x (400 g ai/ha)): 94.3%
root dry weight, % of untreated ([4]; 5x (400 g ai/ha)): 80.0%
biomass accumulation, % of untreated ([4]; 6x (480 g ai/ha)): 78.0%
plant height, % of untreated ([4]; 6x (480 g ai/ha)): 85.8%
root dry weight, % of untreated ([4]; 6x (480 g ai/ha)): 65.8%
